The text below walks through data of BindingDB's records for doi:10.1016/0960-894X(94)85036-4 (1994).

Each structure is given as a SMILES string. pIC50: −log10 of the molar value.

This test addresses Type-1 angiotensin II receptor (Rattus norvegicus). Nature of the test: […] inhibitory concentration against Angiotensin II receptor, type 1 of rat adrenal membrane.

Compound `CCCCOC(=O)NS(=O)(=O)c1ccccc1-c1ccc(Cn2c(CCCC)nc3ccc(NC(=O)N(C)C(C)C)cc3c2=O)cc1` [2-Butyl-3-(2'-(butyloxycarbonylaminosulphonyl)-biphenyl-4-ylmethyl)-6-(N-isopropyl-N-methyl-aminocarbonylamino)-3H-quinazolin-4-one] gave a pIC50 of 8.40.
